Measured values: PMC4810358, “Applicability of the Rayleigh equation for enantioselective metabolism of chiral xenobiotics by microsomes, hepatocytes and in-vivo retention in rabbit tissues” (Scientific Reports, 2016)

Experiment: in vivo stereoselective metabolism of doxazosin, plasma concentration-time profiles (Kong et al.)
Settings: male Sprague–Dawley rats, from Fig. 3 in ref 25, R^2 = 0.92
Source text: For example, Sun et al.[26] have reviewed the enantioselective behavior of the fungicide myclobutanil enantiomers in variant rabbit tissues following intravenous administration of the racemic fungicide. Using the plasma concentration-time curves of the two enantiomers (presented in Fig. 1A in ref. [26]) we obtained the enantiomeric enrichment factor of −28 ± 5 (R^2 = 0.97). Analysis of the distribution of myclobutanil in various tissues, presented in Fig. 3 in ref. [26], obtained the enantiomeric enrichment factors of −33 ± 16 (R^2 = 0.92) for the liver, −20 ± 6 (R^2 = 0.97) for the brain, −32 ± 16 (R^2 = 0.89) for the kidney and −21 ± 6 (R^2 = 0.97) for the muscle. […] This quantitative ranking is obscured by the large number of time trace data points in the original presentation. Another example can be presented by the study of Kong et al.[25] reporting on the stereoselective metabolism of the alpha blocker doxazosin (DOX) in vivo in male Sprague–Dawley rats.

enantiomeric enrichment factor: −45 ± 13
SMILES: COc1cc2nc(N3CCN(C(=O)C4COc5ccccc5O4)CC3)nc(N)c2cc1OC (stereo not shown) [DOX, doxazosin]
